Here are results for three compounds from patent publication US8334298B2, “Treatment or prevention of ovarian hyperstimulation syndrome (OHSS) using a dopamine agonist” (Ferring International Center S.A., priority 2005, dated 2012).

The subject of data set [1] is patients with treatment-resistant OHSS. The following applies: oral docarpamine, 27 patients; cited from earlier work.
For data set [2] the following is noted: oncolytic models; cited from earlier work.
Another data set concerns OHSS rats. The data set is described as follows: Vascular permeability (Evans Blue) in OHSS rats treated with bromocriptine (Example 1). The class given is in vivo, Wistar rats. The following applies: VP 48 h after hCG. How it is done:
Drug Treatment. Immature female Wistar rats were employed. In the OHSS group (n=8), Pregnant Mare's Serum Gonadotropin (PMSG) was administered at 10 IU/day for 4 days, followed by hCG (30 IU) on the fifth day. In the mild (i.e., ovarian stimulation) group (n=8), 10 IU of PMSG was administered followed 2 days later by administration of 10 IU of hCG. In the control group, 1 IU of PMSG was administered followed by 1 IU of hCG 48 hrs later. Vascular Permeability Measurement. Vascular permeability was measured 48 hours following hCG administration. 0.2 ml of 5 mM Evans Blue stain was injected via the femoral vein. After 30 minutes, the peritoneal cavity was irrigated with saline. Light absorption was measured in the recovered fluid at 595 nm and the vascular permeability was expressed as μg Evans blue/100 g body weight. In a second series of experiments, varying doses of bromocriptine were administered in a group of rats induced to develop OHSS with 40 IU of PMSG followed by 30 IU of hCG. 1.6, 4.0, 10.0 and 25.0 mg/kg of bromocriptine were intraperitoneally administered on the day of hCG administration and 24 hours later. VP was measured 48 hours following hCG administration.

For the compound `CCOC(=O)Oc1ccc(CCNC(=O)[C@H](CCSC)NC(C)=O)cc1OC(=O)OCC` [docarpamine], in data set [1], the ascites entry was “ascites was decreased” and the diuresis result was “Diuresis was increased in some women”.

Turning to `Cc1cc(C)c(/C=C2\C(=O)Nc3ccccc32)[nH]1` [SU5416], the toxic effects entry in data set [2] is reported as “serious toxic effects”.

With `CC(C)C[C@H]1C(=O)N2CCC[C@H]2[C@]2(O)O[C@](NC(=O)[C@@H]3C=C4c5cccc6[nH]c(Br)c(c56)C[C@H]4N(C)C3)(C(C)C)C(=O)N12` [bromocriptine], the vascular permeability is 15.3±3.3 μg Evans Blue/100 g body weight in the data set on OHSS rats (1.6 mg bromocriptine i.p. on day of hCG and 24 h later, p=0.04); 14.2±2.2 μg Evans Blue/100 g body weight in the data set on OHSS rats (4 mg bromocriptine i.p. on day of hCG and 24 h later, p=0.04); 10.1±2.6 μg Evans Blue/100 g body weight in the data set on OHSS rats (10 mg bromocriptine i.p. on day of hCG and 24 h later, p=0.009); 8.0±1.9 μg Evans Blue/100 g body weight in the data set with OHSS rats (25 mg bromocriptine i.p. on day of hCG and 24 h later, p=0.001).
